Measurements from patent US20070231288A1, “COSMETIC USE OF D-RIBOSE AND METHOD THEREOF” (LM Cosmetics, priority 2006, published 2007).

Legend:
[1] = tested on: normal human epidermal fibroblasts in culture; assay: Effect of D-ribose on in vitro production of ATP by skin cells under hypoxia; type: cell-based; settings: 0.05% D-ribose, after 6 hours of severe hypoxia (oxygen <2%), 24 h pre-treatment
Experimental: The inventors measured the effect of D-ribose on the production of ATP by the normal human epidermal fibroblasts in culture, under conditions of hypoxia. The cellules used are flask inoculations of normal human epidermal fibroblasts in DMEM medium with 10% FCS, incubation at 37° C., 5% CO2 and RH>95% up to 80% confluency. On Day 1, a first measurement of the level of ATP is taken on the untreated, unstressed NHDF. Pre-treatment for 24 hours with 0.05% of ribose versus an untreated control condition, 2 series in hexaplicate according to conditions. On Day 2, before the induction of hypoxia: stopping a series in order to measure the ATP level before hypoxia over all conditions (treated and untreated). The cells of the 2nd series were placed in suspension, the culture medium was renewed by DMEM 10% FCS supplemented with Hepes buffer (to maintain the pH at physiological conditions during hypoxia) and with EDTA (to prevent cell agglutination). The cells are placed in a incubator adjusted to 37° C., RH>95% the atmosphere of which has previously been replaced with nitrogen. Incubation for 6 hours under conditions of severe hypoxia (oxygen <2%) in the presence of 0.05% D-ribose versus an untreated control condition. Recovery of the cells and measurement of the quantity of ATP in the treated and untreated cells.

[2] = tested on: normal human dermal fibroblasts in culture (NHDF); assay: Effect of D-ribose on in vitro skin cell respiration (BD Oxygen Biosensor System); type: cell-based; settings: 0.05% D-ribose, after 2 hours of contact
Experimental: The inventors measured the effect of D-ribose on the mitochondrial and cytosolic respiration of normal human dermal fibroblasts in culture (NHDF). The cells used are fibroblasts cultured at 37° C., 5% CO2, in DMEM medium, 10% FCS (foetal calf serum). The NHDF cultured in monolayer are placed in suspension and distributed in the wells of a special plate of the “BD Oxygen Biosensor System” kit. The bottom of the well is constituted by a membrane on which a molecule is grafted the fluorescence of which is inhibited by the oxygen dissolved in the incubation medium. The fluorescence increases in proportion to the oxygen consumed by the cells. 0.05% D-ribose is added in six wells. The intensity of fluorescence is measured in kinetic mode. The rate of respiration is calculated from measurements of the intensity of fluorescence.

## O=C[C@H](O)[C@H](O)[C@H](O)CO [D-ribose]
[1]
  ATP level re-established: 19%
[2]
  increase in the cytosolic respiration: 37%
  increase in the mitochondrial respiration: 31%
